The kinase profiling compilation of Christmann-Franck et al. (2016)

Experiments:
Assay in all cases: radiometric filter-binding kinase assay, Kinase HotSpot
Conditions in all cases: compound 0.5 µM; ATP 10 µM
[1] = biological target: MELK (human) (UniProt Q14680)
[2] = biological target: DAPK1 (human) (UniProt P53355)
[3] = biological target: TYK2 JH1 catalytic (human) (UniProt P29597)
[4] = biological target: RPS6KB2 (human) (UniProt Q9UBS0)
[5] = biological target: CLK2 (human) (UniProt P49760)
[6] = biological target: DCLK2 (human) (UniProt Q8N568)
[7] = biological target: GRK5 (human) (UniProt P34947)
[8] = biological target: AURKB (human) (UniProt Q96GD4)
[9] = biological target: WNK2 (human) (UniProt Q9Y3S1)
[10] = biological target: PIM1 (human) (UniProt P11309)
[11] = biological target: RIPK2 (human) (UniProt O43353)
Sequence of RIPK2 (human) (O43353 whole entry, looked up): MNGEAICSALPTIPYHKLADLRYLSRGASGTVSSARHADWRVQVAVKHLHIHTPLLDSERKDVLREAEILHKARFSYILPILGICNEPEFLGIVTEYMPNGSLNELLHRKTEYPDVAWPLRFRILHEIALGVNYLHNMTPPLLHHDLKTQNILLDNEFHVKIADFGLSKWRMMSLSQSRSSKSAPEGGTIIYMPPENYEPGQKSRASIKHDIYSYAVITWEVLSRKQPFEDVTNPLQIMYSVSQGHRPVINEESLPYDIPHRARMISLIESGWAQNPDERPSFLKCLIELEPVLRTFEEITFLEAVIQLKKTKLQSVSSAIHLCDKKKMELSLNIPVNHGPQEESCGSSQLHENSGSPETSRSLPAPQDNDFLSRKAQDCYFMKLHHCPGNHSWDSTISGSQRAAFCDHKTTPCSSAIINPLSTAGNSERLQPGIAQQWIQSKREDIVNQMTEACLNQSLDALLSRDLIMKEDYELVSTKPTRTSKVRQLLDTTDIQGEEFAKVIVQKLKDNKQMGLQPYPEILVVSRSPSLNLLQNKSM

[12] = biological target: INSRR (human) (UniProt P14616)
[13] = biological target: AKT1 (human) (UniProt P31749)
[14] = biological target: MAPK9 (human) (UniProt P45984)
Sequence of MAPK9 (human) (P45984 whole entry, looked up): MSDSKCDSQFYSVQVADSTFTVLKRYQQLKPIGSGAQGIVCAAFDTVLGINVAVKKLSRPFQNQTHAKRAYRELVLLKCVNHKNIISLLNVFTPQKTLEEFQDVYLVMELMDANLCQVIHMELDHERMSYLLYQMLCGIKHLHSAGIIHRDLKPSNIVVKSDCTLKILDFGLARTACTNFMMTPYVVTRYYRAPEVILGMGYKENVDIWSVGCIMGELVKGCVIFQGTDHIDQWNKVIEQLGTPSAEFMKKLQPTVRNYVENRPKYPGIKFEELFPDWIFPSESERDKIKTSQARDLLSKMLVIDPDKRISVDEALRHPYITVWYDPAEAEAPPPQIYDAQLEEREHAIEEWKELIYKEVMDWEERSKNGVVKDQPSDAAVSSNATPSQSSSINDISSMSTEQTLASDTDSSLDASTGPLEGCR

[15] = biological target: ROCK2 (human) (UniProt O75116)
[16] = biological target: FGFR4 (human) (UniProt P22455)
Sequence of FGFR4 (human) (P22455 whole entry, looked up): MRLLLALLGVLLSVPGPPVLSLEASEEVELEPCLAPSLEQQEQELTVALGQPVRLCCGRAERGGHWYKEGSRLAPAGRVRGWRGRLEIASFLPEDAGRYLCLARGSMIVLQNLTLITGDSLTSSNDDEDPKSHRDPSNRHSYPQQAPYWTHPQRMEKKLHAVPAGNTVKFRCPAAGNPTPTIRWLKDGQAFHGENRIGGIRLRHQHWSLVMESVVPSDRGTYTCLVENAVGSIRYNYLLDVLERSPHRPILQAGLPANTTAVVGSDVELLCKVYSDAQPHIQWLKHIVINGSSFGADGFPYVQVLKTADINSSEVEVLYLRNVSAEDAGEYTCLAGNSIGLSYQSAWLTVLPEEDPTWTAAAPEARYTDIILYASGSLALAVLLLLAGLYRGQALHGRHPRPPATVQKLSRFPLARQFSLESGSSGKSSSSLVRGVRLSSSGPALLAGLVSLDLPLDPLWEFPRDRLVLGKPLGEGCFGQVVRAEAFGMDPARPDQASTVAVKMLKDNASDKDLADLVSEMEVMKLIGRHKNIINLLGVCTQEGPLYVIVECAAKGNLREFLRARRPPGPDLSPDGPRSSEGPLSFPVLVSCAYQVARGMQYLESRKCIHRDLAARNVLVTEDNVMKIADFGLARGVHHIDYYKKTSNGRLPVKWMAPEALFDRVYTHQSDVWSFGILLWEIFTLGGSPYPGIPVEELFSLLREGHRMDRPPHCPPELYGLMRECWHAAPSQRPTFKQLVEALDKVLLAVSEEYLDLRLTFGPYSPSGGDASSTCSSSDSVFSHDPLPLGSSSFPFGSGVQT

[17] = biological target: CSNK1G3 (human) (UniProt Q9Y6M4)
[18] = biological target: TSSK2 (human) (UniProt Q96PF2)
[19] = biological target: SRC (human) (UniProt P12931)
Sequence of SRC (human) (P12931 whole entry, looked up): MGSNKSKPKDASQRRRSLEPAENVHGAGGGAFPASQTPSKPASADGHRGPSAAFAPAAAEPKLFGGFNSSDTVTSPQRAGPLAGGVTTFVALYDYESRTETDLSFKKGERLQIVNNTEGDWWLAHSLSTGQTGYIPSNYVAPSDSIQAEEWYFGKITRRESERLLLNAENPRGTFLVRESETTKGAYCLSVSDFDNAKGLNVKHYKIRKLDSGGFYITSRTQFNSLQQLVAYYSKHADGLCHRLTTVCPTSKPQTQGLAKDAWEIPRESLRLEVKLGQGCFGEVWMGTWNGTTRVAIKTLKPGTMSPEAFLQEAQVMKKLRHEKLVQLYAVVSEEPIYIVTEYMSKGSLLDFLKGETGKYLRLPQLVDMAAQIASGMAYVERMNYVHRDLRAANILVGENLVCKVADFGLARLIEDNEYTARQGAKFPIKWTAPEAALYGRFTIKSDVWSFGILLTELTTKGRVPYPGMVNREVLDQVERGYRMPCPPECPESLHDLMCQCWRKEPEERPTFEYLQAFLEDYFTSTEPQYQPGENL

[20] = biological target: TEC (human) (UniProt P42680)
[21] = biological target: HIPK4 (human) (UniProt Q8NE63)
[22] = biological target: FYN (human) (UniProt P06241)
[23] = biological target: MAP3K10 (human) (UniProt Q02779)
[24] = biological target: INSR (human) (UniProt P06213)
[25] = biological target: DYRK4 (human) (UniProt Q9NR20)
Sequence of DYRK4 (human) (Q9NR20 whole entry, looked up): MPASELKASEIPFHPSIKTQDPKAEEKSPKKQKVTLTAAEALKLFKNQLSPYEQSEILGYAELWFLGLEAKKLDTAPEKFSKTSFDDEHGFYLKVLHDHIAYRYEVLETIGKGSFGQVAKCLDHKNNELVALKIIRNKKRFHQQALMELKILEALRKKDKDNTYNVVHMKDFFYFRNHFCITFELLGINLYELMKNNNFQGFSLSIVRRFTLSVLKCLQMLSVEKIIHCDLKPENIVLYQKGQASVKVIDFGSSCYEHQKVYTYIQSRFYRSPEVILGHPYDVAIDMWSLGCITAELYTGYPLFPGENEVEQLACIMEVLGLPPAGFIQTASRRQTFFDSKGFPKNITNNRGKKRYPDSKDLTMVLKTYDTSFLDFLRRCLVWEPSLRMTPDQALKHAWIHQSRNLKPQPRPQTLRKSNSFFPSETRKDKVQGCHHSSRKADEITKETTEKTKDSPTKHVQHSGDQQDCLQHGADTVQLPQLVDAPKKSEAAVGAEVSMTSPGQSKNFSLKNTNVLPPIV

[26] = test system: MKNK1 (human), Q9BUB5 [T385D; 165-205 del]
[27] = biological target: MAP3K9 (human) (UniProt P80192)
[28] = biological target: PKN1 (human) (UniProt Q16512)
[29] = biological target: PHKG1 (human) (UniProt Q16816)
Sequence of PHKG1 (human) (Q16816 whole entry, looked up): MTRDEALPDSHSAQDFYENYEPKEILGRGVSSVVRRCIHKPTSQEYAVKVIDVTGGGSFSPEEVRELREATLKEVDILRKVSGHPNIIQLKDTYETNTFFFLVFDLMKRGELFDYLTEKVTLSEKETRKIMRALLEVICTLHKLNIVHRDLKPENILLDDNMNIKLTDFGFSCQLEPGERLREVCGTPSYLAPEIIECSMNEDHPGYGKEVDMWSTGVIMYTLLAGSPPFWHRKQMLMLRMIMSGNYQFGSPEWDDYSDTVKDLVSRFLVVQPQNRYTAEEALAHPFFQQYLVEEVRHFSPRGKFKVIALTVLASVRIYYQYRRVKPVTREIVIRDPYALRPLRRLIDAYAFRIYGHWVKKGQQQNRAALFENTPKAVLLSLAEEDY

[30] = biological target: MERTK (human) (UniProt Q12866)
[31] = biological target: RPS6KA4 KD2 (human) (UniProt O75676)
[32] = test system: PRKCQ (human), Q04759 [P330L]
[33] = biological target: ERBB4 (human) (UniProt Q15303)
[34] = biological target: STK11 (human) (UniProt Q15831)
[35] = biological target: MYLK2 (human) (UniProt Q9H1R3)
[36] = biological target: CDK7 CCNH MNAT1 (human) (UniProt P50613+P51948+P51946)
[37] = biological target: FLT3 (human) (UniProt P36888)
[38] = biological target: EPHB1 (human) (UniProt P54762)
[39] = biological target: CDK4 CCND3 (human) (UniProt P30281+P11802)
[40] = biological target: CSNK1E (human) (UniProt P49674)

Sequence of TYK2 JH1 catalytic (human) (P29597 whole entry, looked up): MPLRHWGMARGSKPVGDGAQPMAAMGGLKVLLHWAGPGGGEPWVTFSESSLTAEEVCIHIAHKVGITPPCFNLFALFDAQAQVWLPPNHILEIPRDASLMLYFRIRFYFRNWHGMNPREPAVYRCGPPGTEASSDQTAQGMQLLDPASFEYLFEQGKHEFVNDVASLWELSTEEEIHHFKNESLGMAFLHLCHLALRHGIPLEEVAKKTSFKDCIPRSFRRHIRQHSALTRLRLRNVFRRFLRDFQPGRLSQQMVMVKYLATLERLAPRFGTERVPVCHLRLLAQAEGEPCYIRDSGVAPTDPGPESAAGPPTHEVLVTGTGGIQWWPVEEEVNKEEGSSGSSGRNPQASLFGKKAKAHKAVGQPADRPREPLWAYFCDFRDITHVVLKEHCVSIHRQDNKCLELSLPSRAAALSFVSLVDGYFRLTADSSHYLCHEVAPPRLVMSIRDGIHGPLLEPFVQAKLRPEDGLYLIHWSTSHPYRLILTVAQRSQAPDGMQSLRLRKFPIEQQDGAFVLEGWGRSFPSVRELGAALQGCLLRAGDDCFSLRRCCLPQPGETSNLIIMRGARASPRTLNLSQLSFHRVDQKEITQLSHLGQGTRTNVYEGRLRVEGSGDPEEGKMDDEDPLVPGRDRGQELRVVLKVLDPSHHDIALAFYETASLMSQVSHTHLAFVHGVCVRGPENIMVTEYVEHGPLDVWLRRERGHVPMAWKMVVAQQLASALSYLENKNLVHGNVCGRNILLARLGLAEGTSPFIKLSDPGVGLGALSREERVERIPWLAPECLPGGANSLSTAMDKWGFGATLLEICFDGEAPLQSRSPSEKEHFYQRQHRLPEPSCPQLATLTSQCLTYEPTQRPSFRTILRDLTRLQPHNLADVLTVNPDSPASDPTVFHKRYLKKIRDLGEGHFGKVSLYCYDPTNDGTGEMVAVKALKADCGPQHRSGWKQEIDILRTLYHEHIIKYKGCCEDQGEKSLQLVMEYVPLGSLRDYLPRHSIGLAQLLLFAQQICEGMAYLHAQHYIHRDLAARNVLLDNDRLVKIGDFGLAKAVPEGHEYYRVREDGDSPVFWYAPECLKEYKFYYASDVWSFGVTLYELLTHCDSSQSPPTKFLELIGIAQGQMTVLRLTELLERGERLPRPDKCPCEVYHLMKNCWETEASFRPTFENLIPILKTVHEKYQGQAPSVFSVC
Sequence of RPS6KB2 (human) (Q9UBS0 whole entry, looked up): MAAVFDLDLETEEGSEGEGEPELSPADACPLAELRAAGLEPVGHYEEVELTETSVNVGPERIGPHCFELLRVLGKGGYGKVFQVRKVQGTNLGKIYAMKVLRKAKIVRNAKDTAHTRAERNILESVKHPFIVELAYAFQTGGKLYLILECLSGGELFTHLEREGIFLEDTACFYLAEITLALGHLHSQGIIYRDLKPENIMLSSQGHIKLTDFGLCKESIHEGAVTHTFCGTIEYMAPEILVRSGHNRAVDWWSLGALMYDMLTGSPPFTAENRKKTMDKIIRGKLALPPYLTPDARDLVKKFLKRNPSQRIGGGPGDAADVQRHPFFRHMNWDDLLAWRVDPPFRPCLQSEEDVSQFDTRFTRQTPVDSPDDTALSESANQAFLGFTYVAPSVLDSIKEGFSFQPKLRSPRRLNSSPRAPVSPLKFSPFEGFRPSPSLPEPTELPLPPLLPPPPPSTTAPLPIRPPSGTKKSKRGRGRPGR

Row | SMILES | residual activity [1] | residual activity [2] | residual activity [3] | residual activity [4] | residual activity [5] | residual activity [6] | residual activity [7] | residual activity [8] | residual activity [9] | residual activity [10] | residual activity [11] | residual activity [12] | residual activity [13] | residual activity [14] | residual activity [15] | residual activity [16] | residual activity [17] | residual activity [18] | residual activity [19] | residual activity [20] | other results
1 | CO[C@@H]1[C@H](N(C)C(=O)c2ccccc2)C[C@H]2O[C@]1(C)n1c3ccccc3c3c4c(c5c6ccccc6n2c5c31)C(=O)NC4 | 4.87% | 84% | 8.26% | 55.9% | 36% | 101% | 93.3% | 2.96% | 111% | 41.2% | 82.8% | 96.2% | 81.3% | 82.7% | 80.9% | 84.2% | 95.3% | 89.1% | 39.6% | 106% | residual activity [21]: 90.5%; residual activity [22]: 34%; residual activity [23]: 3.15%; residual activity [24]: 106%; residual activity [25]: 96.4%; residual activity [26]: 92.7%; residual activity [27]: 0.446%; residual activity [28]: 1.37%; residual activity [29]: 2.34%; residual activity [30]: 78.7%; residual activity [31]: 16.8%
2 | C[C@@H]1CCN(C(=O)CC#N)C[C@@H]1N(C)c1ncnc2[nH]ccc12 | 79.4% | 109% | 12% | 100% | 85.8% | 96.6% | 107% | 99.2% | 101% | 102% | 113% | 97.5% | 90.3% | 112% | 69.9% | 94.3% | 101% | 87.9% | 99.8% | 95.4% | residual activity [32]: 89%; residual activity [33]: 100%; residual activity [34]: 104%; residual activity [35]: 99%; residual activity [36]: 119%; residual activity [21]: 96.2%; residual activity [37]: 77.9%; residual activity [23]: 105%; residual activity [24]: 101%; residual activity [38]: 106%; residual activity [25]: 97.2%; residual activity [26]: 89.9%; residual activity [39]: 99.9%; residual activity [27]: 113%; residual activity [28]: 16.5%; residual activity [29]: 90%; residual activity [30]: 114%; residual activity [31]: 105%; residual activity [40]: 101%
